Three compounds from patent publication US8552049B2, “Pyrazolecarboxamide derivatives and their use as microbiocides” (Syngenta Corp Protection, LLC, priority 2010, dated 2013) can be followed below.

One data set concerns Mycosphaerella arachidis. Briefly: Action against Mycosphaerella arachidis (early leaf spot of groundnut) - fungal growth assay. It counts as cell-based. As to conditions: 0.002% active ingredient, PDB nutrient broth, 24° C., photometrically after 6-7 days. How it is done:
(§1) Action Against Mycosphaerella arachidis (Early Leaf Spot of Groundnut; Cercospora arachidicola [Anamorph])—Fungal Growth Assay Conidia of the fungus from cryogenic storage were directly mixed into nutrient broth (PDB potato dextrose broth). After placing a (DMSO) solution of the test compounds (0.002% active ingredient) into a microtiter plate (96-well format) the nutrient broth containing the fungal spores was added. The test plates were incubated at 24° C. and the inhibition of growth was measured photometrically after 6-7 days. The activity of a compound was expressed as fungal growth inhibition (0=no growth inhibition, ratings of 80% to 99% mean good to very good inhibition, 100%=complete inhibition). Compounds 1.003 and 1.004 show very good activity in this test (≧80% inhibition).

The test system of data set [1] is Puccinia recondita. Briefly: Curative action against Puccinia recondita (brown rust) on wheat leaf segments. The data set is classed as in vivo. As to conditions: foliar, wheat leaf segments sprayed with 0.02% active ingredient one day after inoculation, assessed 8 days after inoculation, read-out: curative fungicidal activity (inhibition). How it is done: Curative Action Against Puccinia recondita (Brown Rust) on Wheat Wheat leaf segments were placed on agar in multiwell plates (24-well format) and inoculated with a spore suspension of the fungus. One day after inoculation the leaf segments were sprayed with test solutions (0.02% active ingredient). After appropriate incubation the activity of a compound was assessed 8 days after inoculation as curative fungicidal activity.

Another data set has as its system Pyrenophora teres. Put plainly: Action against Pyrenophora teres (net blotch) on barley leaf segments. It counts as in vivo. As to conditions: foliar, 96 h, barley leaf segments sprayed with 0.02% active ingredient, assessed 4 days after inoculation, read-out: preventive fungicidal activity (inhibition). How it is done:
Action Against Pyrenophora teres (Net Blotch) on Barley Barley leaf segments were placed on agar in multiwell plates (24-well format) and sprayed with test solutions (0.02% active ingredient). After drying, the leaf disks were inoculated with a spore suspension of the fungus. After appropriate incubation the activity of a compound was assessed 4 days after inoculation as preventive fungicidal activity. Compounds 1.003 and 1.004 show very good activity in this test (≧80% inhibition).

The test system of data set [2] is Erysiphe graminis f.sp. tritici. Briefly: Action against Erysiphe graminis f.sp. tritici (wheat powdery mildew), wheat leaf segments. The data set is classed as in vivo. As to conditions: Blumeria graminis, foliar, 168 h; wheat leaf segments sprayed with 0.02% active ingredient, assessed 7 days after inoculation; read-out: preventive fungicidal activity (inhibition). How it is done: Action Against Erysiphe graminis f.sp. tritici (Wheat Powdery Mildew) Wheat leaf segments were placed on agar in multiwell plates (24-well format) and sprayed with test solutions (0.02% active ingredient). After drying, the leaf disks were inoculated with a spore suspension of the fungus. After appropriate incubation the activity of a compound was assessed 7 days after inoculation as preventive fungicidal activity.

The next data set concerns Monographella nivalis. Put plainly: Action against Monographella nivalis (snow mould) - fungal growth assay. The data set is classed as cell-based. As to conditions: 0.002% active ingredient, PDB nutrient broth, 24° C., photometrically after 72 hrs. The method, then: (§2) Action Against Monographella nivalis (Anamorph: Fusarium nivale, Microdochium nivale; Snow Mould)—Fungal Growth Assay Conidia of the fungus from cryogenic storage were directly mixed into nutrient broth (PDB potato dextrose broth). After placing a DMSO-solution of the test compounds (0.002% active ingredient) into a microtiter plate (96-well format) the nutrient broth containing the fungal spores was added. The test plates were incubated at 24° C. and the inhibition of growth was measured photometrically after 72 hrs (0=no growth inhibition, ratings of 80% to 99% mean good to very good inhibition, 100%=complete inhibition).

Data set [3] deals with Puccinia recondita. Briefly: Protective action against Puccinia recondita (brown rust) on wheat leaf segments. It counts as in vivo. As to conditions: foliar, 192 h, wheat leaf segments sprayed with 0.02% active ingredient, assessed 8 days after inoculation, read-out: preventive fungicidal activity (inhibition). The method, then:
Protective Action Against Puccinia recondita (Brown Rust) on Wheat Wheat leaf segments were placed on agar in multiwell plates (24-well format) and sprayed with test solutions (0.02% active ingredient). After drying, the leaf disks were inoculated with a spore suspension of the fungus. After appropriate incubation the activity of a compound was assessed 8 days after inoculation as preventive fungicidal activity.

Another data set deals with Septoria tritici. Briefly: Action against Septoria tritici - fungal growth assay. It counts as cell-based. As to conditions: Zymoseptoria tritici; 0.002% active ingredient, PDB nutrient broth, 24° C., photometrically after 72 hrs. How it is done: as §2, with “Septoria tritici—Fungal” for “Monographella nivalis (Anamorph: Fusarium nivale, Microdochium nivale; Snow Mould)—Fungal”, “(DMSO) solution” for “DMSO-solution”, “determined” for “measured”, “hrs. The activity of a compound was expressed as fungal growth inhibition” for “hrs”

For another data set, the system named is Botrytis cinerea. Briefly: Action against Botrytis cinerea - fungal growth assay. As to conditions: 0.002% active ingredient, PDB nutrient broth, 24° C., photometrically after 3-4 days. It counts as cell-based. The method, then:
as §1, with “Against Botrytis cinerea—Fungal” for “Against Mycosphaerella arachidis (Early Leaf Spot of Groundnut; Cercospora arachidicola [Anamorph])—Fungal”, “storage was” for “storage were”, “after 3-4” for “after 6-7”

For `CON(C(=O)c1cn(C)nc1C(F)F)C(CF)Cc1ccc(Cl)cc1Cl` (stereo not drawn) [Compound 1.003, 3-difluoromethyl-1-methyl-1H-pyrazole-4-carboxylic acid [2-(2,4-dichloro-phenyl)-1-fluoromethyl-ethyl]-methoxy-amide], the inhibition at 0.002 % strength with Mycosphaerella arachidis, in the data set on Monographella nivalis, in the data set with Septoria tritici and in the data set with Botrytis cinerea was not below 80% each time. In addition, the inhibition at 0.02 % strength (in the data set on Puccinia recondita [1]; with Pyrenophora teres; in [2]; in the data set on Puccinia recondita [3]) was not below 80% in each case.
As to `CON(C(=O)c1cn(C)nc1C(F)F)C(CF)Cc1c(Cl)cc(Cl)cc1Cl` (stereo not drawn) [Compound 1.004, 3-difluoromethyl-1-methyl-1H-pyrazole-4-carboxylic acid [1-fluoromethyl-2-(2,4,6-trichlorophenyl)-ethyl]-methoxy-amide], the melting point (as a rule, the temperature of the solid-liquid transition) is 117 to 118 °C. Further, the inhibition (usually the drop in the measured response relative to a control, in per cent) at 0.002 % strength in the data set with Mycosphaerella arachidis is not below 80%. The inhibition at 0.02 % strength in the data set with Puccinia recondita [1] is not below 80%. Besides, the inhibition at 0.02 % strength in the data set with Pyrenophora teres was not below 80%. For the same compound, the inhibition at 0.02 % strength in data set [2] is not below 80%. In addition, in the data set on Monographella nivalis, the inhibition at 0.002 % strength is not below 80%. In addition, the inhibition at 0.02 % strength in the data set on Puccinia recondita [3] was not below 80%. The inhibition at 0.002 % strength in the data set on Septoria tritici is not below 80%. The compound also returned an inhibition at 0.002 % strength in the data set with Botrytis cinerea not below 80%.
`CON(C(=O)c1cn(C)nc1C(F)(F)F)C(CF)Cc1c(Cl)cc(Cl)cc1Cl` (stereo not drawn) [Compound 3.004, 1-methyl-3-trifluoromethyl-1H-pyrazole-4-carboxylic acid [1-fluoromethyl-2-(2,4,6-trichlorophenyl)-ethyl]-methoxy-amide] showed a melting point of 131 to 133 °C.
